Assay results published in ChEMBL document CHEMBL1147334, “Starfish saponins, part 49. New cytotoxic steroidal glycosides from the starfish Fromia monilis” (J Nat Prod, 1993).

System: Vero
Assay: Cytotoxicity against african green monkey Vero cells after 24 hrs measured per 5x10^5 cells by neutral red uptake assay
Assay type: cell-based
Conditions: chlorocebus sabaeus

Row | Compound | Activity
1 | CO[C@@H]1[C@@H](O)[C@H](O[C@@H]2CO[C@@H](O[C@@H]3CO[C@@H](OCC[C@@H](/C=C/[C@@H](C)[C@H]4[C@@H](O)[C@@H](O)[C@@H]5[C@]4(C)CC[C@@H]4[C@@]6(C)CC[C@H](O)[C@H](O)[C@@H]6[C@@H](O)C[C@]45O)C(C)C)[C@H](O)[C@H]3O)[C@H](O)[C@H]2OC)OC[C@H]1O | 10 µg
2 | CO[C@H]1[C@H](O[C@H]2CC[C@]3(C)C4=CC[C@]5(C)[C@@H]([C@H](C)CC[C@H](O)C(C)C)C[C@@H](O)[C@H]5C4=CC[C@H]3C2)OC[C@@H](O)[C@@H]1O [MONILOSIDE A] | 3 µg
3 | CO[C@H]1[C@H](O[C@H]2CC[C@]3(C)C4=CC[C@]5(C)[C@@H]([C@H](C)CC[C@H](O)C(C)C)C[C@@H](O)[C@H]5C4=CC[C@H]3[C@H]2O)OC[C@@H](O)[C@@H]1O [MONILOSIDE B] | 3 µg
4 | CO[C@H]1[C@H](O[C@H]2CC[C@@]3(C)[C@H]([C@H]2O)[C@H](O)C[C@H]2[C@@H]4[C@H](O)C[C@H]([C@H](C)CC[C@H](O)C(C)C)[C@@]4(C)CC[C@@H]23)OC[C@@H](O)[C@@H]1O [MONILOSIDE C] | 3 µg
5 | CO[C@H]1[C@H](O[C@H]2CC[C@@]3(C)[C@H]([C@H]2O)[C@H](O)C[C@]2(O)[C@@H]3CC[C@]3(C)[C@@H]([C@H](C)CC[C@H](O)C(C)C)C[C@@H](O)[C@H]32)OC[C@@H](O)[C@@H]1O [MONILOSIDE D] | 3 µg
6 | CO[C@@H]1[C@@H](O)[C@H](OCC[C@@H](CC[C@@H](C)[C@H]2[C@@H](O)[C@@H](O)[C@@H]3[C@]2(C)CC[C@@H]2[C@@]4(C)CC[C@H](O)[C@H](O)[C@@H]4[C@@H](O)C[C@]23O)C(C)C)OC[C@H]1O[C@@H]1OC[C@H](O)[C@H](O)[C@H]1O [MONILOSIDE E] | 10 µg
7 | CO[C@@H]1[C@@H](O)[C@H](OCC[C@@H](/C=C/[C@@H](C)[C@H]2[C@@H](O)[C@@H](O)[C@@H]3[C@]2(C)CC[C@@H]2[C@@]4(C)CC[C@H](O)[C@H](O)[C@@H]4[C@@H](O)C[C@]23O)C(C)C)OC[C@H]1O[C@@H]1OC[C@H](O)[C@H](O)[C@H]1O [MONILOSIDE F] | 10 µg
8 | CO[C@@H]1[C@@H](O)[C@H](O[C@@H]2CO[C@@H](O[C@@H]3CO[C@@H](OCC[C@@H](CC[C@@H](C)[C@H]4[C@@H](O)[C@@H](O)[C@@H]5[C@]4(C)CC[C@@H]4[C@@]6(C)CC[C@H](O)[C@H](O)[C@@H]6[C@@H](O)C[C@]45O)C(C)C)[C@H](O)[C@H]3O)[C@H](O)[C@H]2OC)OC[C@H]1O [MONILOSIDE G] | 10 µg
9 | CO[C@@H]1[C@@H](O)[C@H](O[C@@H]2CO[C@@H](O[C@@H]3CO[C@@H](OCC[C@@H](CC[C@@H](C)[C@H]4[C@@H](O)[C@@H](O)[C@@H]5[C@]4(C)CC[C@@H]4[C@@]6(C)CC[C@H](O)[C@H](O)[C@@H]6[C@@H](O)C[C@]45O)C(C)C)[C@H](O)[C@H]3O)[C@H](O)[C@H]2O)OC[C@H]1O [MONILOSIDE I] | 1 µg
